pIC50: −log10 of the molar value. Where two headings read alike, the source gives them in different places.
Experiments:
[1] = system: mouse CCL5 secretion by BV-2 cell line; assay: CCL5 secretion by LPS/IFN-γ-activated BV-2 cells (ELISA); type: cell-based
Experimental: (§1) Step 1: BV-2 cells in the exponential growth phase were collected, and viable cells were counted using a Vi-Cell XR cell counter. The cell suspension was adjusted to an appropriate concentration with the culture medium. 160 μL of cell suspension was added to each well of a 96-well cell culture plate, resulting in a final cell concentration of 12,000 cells per well. The culture plate was incubated for 24 hours in a 37° C., 5% CO2 incubator.
(§2) Step 2: A 10 mM DMSO compound stock solution was diluted at a ratio of 1:4 using DMSO to prepare a series of 1000× test compound solutions. These 1000× test compound solutions were further diluted at a ratio of 1:100 using cell culture medium to prepare a series of 10× test compound solutions. Finally, the 96-well plate that had been plated with cells the day before was taken out. According to the experimental well plate loading design, 20 μL of the corresponding 10× solution was added to each well, with three duplicate wells for each drug concentration. The final concentrations of the test compounds used in the experiment (i.e., 1× solutions) have a range of 10, 2.5, 0.625, 0.156, 0.0391, 0.0098, and 0.0024 μM. The final DMSO concentration in each well was 0.1%.
(§3) After the compound was added, the 96-well plate was incubated for half an hour in the 37° C., 5% CO2 incubator.
After the pre-incubation was completed, 20 μL of culture medium containing 100 ng/mL LPS and 100 ng/mL IFN-γ (final concentrations of 10 ng/mL LPS and 10 ng/mL IFN-7) was added to each well to induce the activation of BV-2 cells. The culture plate was then incubated for 24 hours in the 37° C., 5% CO2 incubator. […]
(§4) Step 5 (NO and CCL5 detection): The CCL5 levels in the supernatant were detected using an ELISA kit (Mouse CCL5/RANTES DuoSet ELISA; R&D; DY478-05), following the instructions provided with the kit. The nitric oxide (NO) levels in the supernatant were detected using the Griess Reagent System (Promega; G2930), following the instructions provided with the kit.
(§5) Step 1: Firstly, the optical density values obtained from ELISA and Griess tests were used to plot a standard curve and calculate the absolute concentrations of each sample. The absolute concentration was then calibrated using the CTG fluorescence value corresponding to each sample to obtain the calibrated concentration. The formula for calculating the calibrated concentration was: calibrated concentration=absolute concentration/CTG fluorescence value of the same sample.
Step 2: Based on the calibrated concentration of each sample, the relative percentage of CCL5 or NO secretion (i.e., CCL5 production (%) or NO production (%)) at each test concentration relative to the blank (DMSO) group was calculated. […]

[2] = system: BV-2 cells; assay: CTG cell proliferation assay, LPS/IFN-γ-activated BV-2 cells; type: cell-based, Mouse
Experimental: as §1, §2, §3
(§6) After the pre-incubation was completed, 20 μL of culture medium containing 100 ng/mL LPS and 100 ng/mL IFN-γ (final concentrations of 10 ng/mL LPS and 10 ng/mL IFN-7) was added to each well to induce the activation of BV-2 cells. The culture plate was then incubated for 24 hours in the 37° C., 5% CO2 incubator.
(§7) Step 3: After 24 hours of treatment with the compound, the culture plate was centrifuged at 1200 rpm for 5 minutes. The supernatant was pipetted into another plate, which was sealed with tinfoil and stored at −20° C. for future ELISA and Griess reagent system assays. The cell culture plate from which the supernatant had been removed was immediately used for cell proliferation assays using the CellTiter-Glo (CTG) method.
Step 4: In the cell culture plate from which the supernatant had been removed, 100 μL of PBS was added to each well. According to the instructions of the CellTiter-Glo (CTG) kit, 50 μL of pre-melted and room-temperature balanced CTG solution was added to each well. The plate was then mixed for 2 minutes using a microplate shaker. After letting it stand at room temperature for 10 minutes, the fluorescence signal value was measured using an Envision 2104 plate reader.
Step 1: Using the CTG fluorescence signal values, the percentage of surviving cells (surviving cells %) at each test concentration relative to the blank (DMSO) group was calculated. The formula was: surviving cells %=fluorescence value of the test concentration group/fluorescence value of the blank group.
Step 2: the percentage of surviving cells was plotted against the logarithm of the compound concentration. Nonlinear regression was used to fit the curve, and the formula “log(inhibitor) vs. response—Variable slope” in the software GraphPad Prism 5 was employed to calculate the IC50 value.
Step 3: The formula for calculating the inhibition rate was: inh. (%)={fluorescence value of the blank group−fluorescence value of the test concentration group}/fluorescence value of the blank (DMSO) group.

[3] = system: NO secretion by BV-2 cell line; assay: NO secretion by LPS/IFN-γ-activated BV-2 cells (Griess Reagent System); type: cell-based, Mouse; conditions: for pIC50: Mus musculus, BV-2, 24 h co-incubation
Experimental: as §1, §2, §3, §6, §7, §4, §5
Step 2: Based on the calibrated concentration of each sample, the relative percentage of CCL5 or NO secretion (i.e., CCL5 production (%) or NO production (%)) at each test concentration relative to the blank (DMSO) group was calculated. The formula for calculating the relative percentage was: relative percentage %=(calibrated concentration of the test concentration group)/(calibrated concentration of the blank group).
Step 3: Finally, the relative percentage of CCL5 secretion or the relative percentage of NO secretion was plotted against the logarithm of the compound concentration. […]

[4] = 24 h co-incubation, up to 10 μM

CCc1cc(/C(C)=N/OCc2ccc(C3CCCCC3)c(C(F)(F)F)c2)ccc1CN1CC(C(=O)O)C1 [Siponimod, reference compound]
Maximum inhibition rate on CCL5 secretion by BV-2 [1, 4]: 35.16% | pIC50 ([1]; Mus musculus, BV-2, 24 h co-incubation): < 5.00 | inhibitory effect on cell proliferation ([2]; 24 h co-incubation with BV-2, highest test concentration 10 μM): no significant inhibitory effect on cell proliferation | inhibition at up to 10 µM ([2]; Mus musculus, BV-2, 24 h co-incubation, LPS/IFN-γ, highest concentration 10 μM, read-out: Maximum inhibition rate on BV-2 cell proliferation): 4.44% | Maximum inhibition rate on NO secretion by BV-2 [3, 4]: 7.71% | pIC50 ([3]; read-out: IC50 on NO secretion by BV-2): < 5.00 | pIC50 ([3]; read-out: IC50 on NO secretion by BV-2 (text of b102)): < 5.00
